Data from patent US11286268B1, “EIF4E-inhibiting compounds and methods” (EFFECTOR THERAPEUTICS, INC., priority 2019, dated 2022).
Read-outs that look alike come from different tables or passages of the source.

Biological target: recombinant eIF4E (Homo sapiens (Human), UniProt P06730)
Assay: Fluorescence polarization competition assay for eIF4E binding potency
Method in brief: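 FP readout; IC50 fit from 8-point, 3-fold series. 75 nM eIF4E + 20 nM ATTO-550-labelled m7GDP probe, Tris pH 7.5/NaCl/DTT/Tween buffer, 1% DMSO final. 30 min RT equilibration, light-protected.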

[1] = fluorescence polarization competition, 75 nM recombinant eIF4E, 20 nM EDA-m7GDP-ATTO-550, IC50 class, read-out: elF4E FP
[2] = inhibition of eIF4E/EDA-m7GDP-ATTO-550 binding by 50%, Table 4B calculated values, read-out: IC50
[3] = inhibition of eIF4E/EDA-m7GDP-ATTO-550 binding, calculated IC50 values, Table 4B, read-out: IC50

Chain of recombinant eIF4E (P06730 whole entry): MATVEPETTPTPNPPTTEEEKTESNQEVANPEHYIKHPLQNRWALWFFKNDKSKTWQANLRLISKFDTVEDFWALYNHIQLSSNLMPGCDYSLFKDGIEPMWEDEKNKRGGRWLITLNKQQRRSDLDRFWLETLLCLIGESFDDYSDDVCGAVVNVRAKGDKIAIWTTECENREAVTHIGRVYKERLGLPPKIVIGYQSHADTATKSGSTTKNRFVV

With `Cc1nc2cc(C(F)(F)F)c(N3CCN(C)CC3)nc2c(=O)n1CC#Cc1ccc(Cl)cc1-c1ccnc2c(C(=O)O)csc12` [compound 682] as the compound, how does the IC50 [1] read?
The IC50 was < 0.05 µM.

And the IC50 [2]?
Its IC50 is 0.00621 µM.

How did the IC50 [1] turn out when `Cc1nc2ccc(S(C)(=O)=O)c(C#N)c2c(=O)n1CCOc1ccc(Cl)cc1-c1ccnc2c(C(=O)O)csc12` [compound 195] was run?
The IC50 was < 0.05 µM.

And the IC50 [2]?
The IC50 was 0.0274 µM.

For `Cc1nc2cc(C(F)(F)F)c(CCN(C)CC(F)F)c(C#N)c2c(=O)n1CCOc1ccc(Cl)cc1-c1ccnc2c(C(=O)O)csc12` [compound 1288], which IC50 [3] is on record?
The IC50 was 0.0367 µM.

With `Cc1cc2cc(C(F)(F)F)c(N3CCN(C)CC3)c(C#N)c2c(=O)n1CCOc1ccc(Cl)cc1-c1ccnc2c(C(=O)O)csc12` [compound 1240] as the compound, how does the IC50 [1] read?
The IC50 was < 0.05 µM.

And the IC50 [3]?
The IC50 was 0.0155 µM.

`COCc1ncc2nc(C)n(CCOc3ccc(Cl)cc3-c3cc(C)nc4c(C(=O)O)csc34)c(=O)c2c1C#N` [compound 1066] was tested. Which IC50 [1] did it give?
Its IC50 is 0.05 to 1 µM.

What about the IC50 [2] of the same compound?
The IC50 was 0.0574 µM.

`Cc1nc2cnc(N3CCN(C)CC3C)c(C#N)c2c(=O)n1CCOc1ccc(Cl)cc1-c1ccnc2c(C(=O)O)csc12` (centres unmarked) [compound 1335] was tested. Which IC50 [3] did it give?
Its IC50 is 0.0128 µM.

For `Cc1nc2cnc(N3CC4(C3)CN(C3CCC3)C4)c(C#N)c2c(=O)n1CCOc1ccc(Cl)cc1-c1ccnc2c(C(=O)NS(C)(=O)=O)csc12` [compound 1512], which IC50 [3] is on record?
The IC50 was 0.0122 µM.

For `COc1ccc(OCCn2cnc3cnc(C#N)cc3c2=O)c(-c2cccc(C(=O)O)c2)c1` [compound 124], which IC50 [1] is on record?
Its IC50 is > 1 µM.

And the IC50 [2]?
The IC50 was 9.13 µM.

How did the IC50 [1] turn out when `Cc1nc2c(S(C)(=O)=O)ccc(C#N)c2c(=O)n1CCOc1ccc(Cl)cc1-c1ccnc2c(C(=O)O)csc12` [compound 229] was run?
The IC50 was < 0.05 µM.

What about the IC50 [2] of the same compound?
The IC50 was 0.0222 µM.

With `CCCc1ncc2nc(C)n(CCOc3ccc(Cl)cc3-c3cc(C)nc4c(C(=O)O)csc34)c(=O)c2c1C#N` [compound 1063] as the compound, how does the IC50 [1] read?
Its IC50 is < 0.05 µM.

Which results are given for `C=Cc1ncc2nc(C)n(CCOc3ccc(Cl)cc3-c3cc(C)nc4c(C(=O)O)csc34)c(=O)c2c1C#N` [compound 809]?
IC50 [1]: < 0.05 µM; IC50 [2]: 0.016 µM

Which IC50 [3] does the source give for `Cc1nc2cnc(N3C[C@@H](C)N(CC(F)F)[C@@H](C)C3)c(C#N)c2c(=O)n1CCOc1ccc(Cl)cc1-c1ccnc2c(C(=O)O)csc12` [compound 1350] here?
The IC50 was 0.0351 µM.

For `Cc1cc(-c2cc(Cl)ccc2OCCn2c(C)nc3cc(C(F)(F)F)c(CCN(C)C)c(C#N)c3c2=O)c2scc(C(=O)O)c2n1` [compound 610], which IC50 [1] is on record?
The IC50 was < 0.05 µM.

What about the IC50 [2] of the same compound?
Its IC50 is 0.0139 µM.

How did the IC50 [1] turn out when `Cc1nc2cnc(N(C)C3CCN(CC(F)(F)F)CC3)c(C#N)c2c(=O)n1CCOc1ccc(Cl)cc1-c1ccnc2c(C(=O)O)csc12` [compound 865] was run?
The IC50 was < 0.05 µM.

What about the IC50 [2] of the same compound?
The IC50 was 0.0284 µM.

Which results are given for `Cc1cc(-c2cc(Cl)ccc2OCCn2c(C)nc3cnc(N4CCN(C)CC4)c(C#N)c3c2=O)c2scc(C(=O)O)c2n1` [compound 1145]?
IC50 [1]: < 0.05 µM; IC50 [2]: 0.0331 µM

Which results are given for `N#Cc1c(F)cc(CCOc2ccc(Cl)cc2-c2cccc(C(=O)O)c2)c2c(=O)[nH]c(Nc3ccccc3)nc12` [compound 174]?
IC50 [1]: 0.05 to 1 µM; IC50 [2]: 0.0521 µM

How did the IC50 [1] turn out when `C#Cc1c(C(F)(F)F)cc2nc(C)n(CCOc3ccc(Cl)cc3-c3cc(C)nc4c(C(=O)O)csc34)c(=O)c2c1C#N` [compound 790] was run?
Its IC50 is < 0.05 µM.

And the IC50 [2]?
Its IC50 is 0.0178 µM.

`Cc1nc2c(C#N)cc(C(F)F)c(C#N)c2c(=O)n1CCOc1ccc(Cl)cc1-c1ccnc2c(C(=O)O)csc12` [compound 197] was tested. Which IC50 [1] did it give?
Its IC50 is 0.05 to 1 µM.

What about the IC50 [2] of the same compound?
Its IC50 is 0.0524 µM.

How did the IC50 [1] turn out when `Cc1c(F)c2cc(C#N)cc(C#N)c2c(=O)n1CCOc1ccc(Cl)cc1-c1ccnc2c(C(=O)O)csc12` [compound 273] was run?
Its IC50 is < 0.05 µM.

What about the IC50 [2] of the same compound?
The IC50 was 0.0302 µM.

For `Cc1nc2cnc(N(C)C3CCN(C)CC3)c(C#N)c2c(=O)n1CC#Cc1ccc(Cl)cc1-c1ccnc2c(C(=O)O)csc12` [compound 1495], which IC50 [3] is on record?
Its IC50 is 0.00709 µM.

Which results are given for `Cc1cc(-c2cc(Cl)ccc2OCCn2c(C)nc3c(C)c(C(F)(F)F)cc(C#N)c3c2=O)c2scc(C(=O)O)c2n1` [compound 364]?
IC50 [1]: 0.05 to 1 µM; IC50 [2]: 0.107 µM

With `Cc1sc2c(-c3cc(Cl)ccc3OCCn3c(C)nc4cc(C(F)(F)F)c(Cl)c(C#N)c4c3=O)ccnc2c1C(=O)O` [compound 555] as the compound, how does the IC50 [1] read?
Its IC50 is < 0.05 µM.

What about the IC50 [2] of the same compound?
The IC50 was 0.0108 µM.
